According to patent US6812335B1, “Human polypeptide receptors for lysophospholipids and sphingolipids and nucleic acids encoding the same” (The Regents of the University of California, priority 1999, dated 2004):
Values joined by “and” are separate entries in the source; they are usually repeats but may differ in a detail not shown here. Identical values can stand only once. Like-named read-outs stand apart in the source and are kept apart here. One block for each molecule: values may come before it.

How the values were obtained:
Edg4 [1] = biological target: T1, Edg4 (Homo sapiens, UniProt Q9HBW0); test: SRE-luciferase reporter gene assay in Edg4-transfected Jurkat cells; assay type: cell-based
T1 construct: The Edg4 protein consists of 382 amino acids with an estimated molecular weight of 42,626 daltons; expressed in transfected cells; host or cells: Jurkat leukemic T cells, transient transfection with Edg4/EF3 (pCDEF3 vector)

Edg2 = biological target: T2, Edg2 (Homo sapiens, UniProt Q92633); test: SRE-luciferase reporter gene assay in Edg2-transfected Jurkat cells; assay type: cell-based; settings: for EC50: 10-h incubation, read-out: EC50 of activation of SRE-driven reporter gene
T2 construct: the 1.1-kb cDNA coding region of human Edg2 was cleaved from Edg2/RSV (An et al., supra) and also subcloned into pCDEF3; expressed in transfected cells; host or cells: Jurkat leukemic T cells, transient transfection with Edg2/EF3 (pCDEF3 vector)

MDA-MB-453 BCCs = test: SRE-firefly luciferase reporter assay in MDA-MB-453 BCCs; assay type: cell-based, human; settings: for mean maximal increase of luciferase luminometric activity: 10^−10 M to 10^−6 M lipid, 4 h
MCF-7 BCC = MCF-7 BCC secretion of IGF-II; assay type: cell-based, human
Tsup-1 cells [2] = settings: cited from earlier work
Tsup-1 cells [3] = test: Anti-Fas antibody-induced apoptosis of Tsup-1 cell transfectants (DNA endlabeling)
MCF-7 BCCs = test: SRE-firefly luciferase reporter assay in MCF-7 BCCs; assay type: cell-based, human; settings: for maximal increase of mean luciferase luminometric activity: 10^−10 M to 10^−6 M lipid, 4 h
[4] = test system: control vector-transfected Jurkat cells; test: [3H]LPA binding in control vector-transfected Jurkat cells
Method: (§1) Jurkat T cells (2×10^7 in OPTI-MEM) were transfected with 2 μg of Edg4/EF3 or empty pCDEF3 vector for 4 hours at 37° C. using Lipofectin (Life Technologies, Inc). The transfected cells were maintained in RPMI 1640 medium containing 10% fetal bovine serum for 12 hours at 37° C. and washed three times with phosphate-buffered saline (PBS) before assessment of binding. Duplicate 0.2-ml aliquots of 2×10^6 cells were incubated with 200,000 cpm of ]^3H] LPA in 0.25% bovine serum albumnin-phosphate-buffered saline binding buffer for 45 minutes at 0° C. The final concentration of [^3H]LPA in the binding incubations was 10 nM. The binding cell suspensions were passed through GFIC filters that were washed with 12 ml of ice-cold PBS containing 0.05% Tween-20, air-dried, and added to scintillation fluid for quantification of radioactivity bound to the cells. Total and nonspecific binding were evaluated in the absence and the presence of 10 μM nonradioactive LPA, respectively. Specific binding was calculated from the difference in cpm between total binding and nonspecific binding.

Edg4 [5] = biological target: T1, Edg4; test: [3H]LPA receptor binding assay in Edg4-transfected Jurkat cells; settings: Edg4 transfectants
Method: as §1

[6] = test system: Jurkat cells transfected with empty pCDEF3 vector; assay type: cell-based; settings: control Jurkat cells
Edg4 [7] = test: SRE-luciferase reporter gene assay in Edg4-transfected Jurkat cells; assay type: cell-based, human; settings: Edg4 versus Edg2 transfectants
[8] = 1 μM lipid, Edg4-transfected Jurkat cells
[9] = 1 μM lipid, Edg2-transfected Jurkat cells
[10] = Edg-2 & -4 antisense pretreatment, lipid 10^−8 M
[11] = Sham transfectants, lipid 10^−8 M, anti-Fas alone = 100%
[12] = Sham transfectants, lipid 10^−9 M, anti-Fas alone = 100%

T2 sequence (Q92633 whole entry): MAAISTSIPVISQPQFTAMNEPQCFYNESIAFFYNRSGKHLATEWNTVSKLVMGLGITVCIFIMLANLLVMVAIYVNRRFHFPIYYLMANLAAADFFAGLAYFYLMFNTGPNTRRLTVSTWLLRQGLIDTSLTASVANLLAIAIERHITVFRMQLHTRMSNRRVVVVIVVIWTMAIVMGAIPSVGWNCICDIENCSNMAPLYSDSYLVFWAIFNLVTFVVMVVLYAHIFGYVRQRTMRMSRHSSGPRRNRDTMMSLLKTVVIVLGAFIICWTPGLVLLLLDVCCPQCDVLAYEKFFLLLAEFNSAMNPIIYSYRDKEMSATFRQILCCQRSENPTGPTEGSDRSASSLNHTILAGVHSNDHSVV
T1 sequence (Q9HBW0 with tags, fused parts or gaps): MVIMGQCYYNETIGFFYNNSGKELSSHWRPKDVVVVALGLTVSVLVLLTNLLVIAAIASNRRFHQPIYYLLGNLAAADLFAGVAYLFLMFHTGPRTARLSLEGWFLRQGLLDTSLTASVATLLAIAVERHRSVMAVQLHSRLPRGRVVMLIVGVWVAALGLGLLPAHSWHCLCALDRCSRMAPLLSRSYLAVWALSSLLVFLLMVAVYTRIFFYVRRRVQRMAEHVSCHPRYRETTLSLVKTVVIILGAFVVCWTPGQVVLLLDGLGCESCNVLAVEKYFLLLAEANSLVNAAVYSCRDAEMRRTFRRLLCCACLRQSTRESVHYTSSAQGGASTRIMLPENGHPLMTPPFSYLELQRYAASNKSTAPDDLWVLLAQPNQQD

Molecule: CCCCCCCCCCCCC/C=C/[C@@H](O)[C@@H](N)COP(=O)(O)O [S1P, sphingosine 1-phosphate]
mean maximal increase of luciferase luminometric activity (MDA-MB-453 BCCs): 26 fold
effect on secretion of IGF-II (MCF-7 BCC): Stimulation
effect on apoptosis evoked by C6-ceramide (Tsup-1 cells [2]): suppressed significantly
effect on apoptosis induced by anti-Fas antibody and a combination of anti-CD3 and anti-CD28 antibodies (Tsup-1 cells [2]): prevent apoptosis
percentage of control apoptosis (Tsup-1 cells [3]; [10]): 22%
percentage of control apoptosis (Tsup-1 cells [3]; Edg-3 & -5 antisense pretreatment, lipid 10^−8 M): 39% and 33%
percentage of control apoptosis (Tsup-1 cells [3]; Edg-3 & -5 antisense pretreatment, lipid 10^−9 M): 53%
percentage of control apoptosis (Tsup-1 cells [3]; [11]): 18%
percentage of control apoptosis (Tsup-1 cells [3]; [12]): 30%
maximal increase of mean luciferase luminometric activity (MCF-7 BCCs): ≤ 85 fold
increase in luciferase expression (Edg4 [1]): failed to generate significant increases
increase in luciferase expression (Edg2): failed to generate significant increases

Molecule: Lysophosphatidic acid [LPA]
mean maximal increase of luciferase luminometric activity (MDA-MB-453 BCCs): 24 fold
number of LPA-binding sites (receptor density) [4]: 15,000±1300
effect on secretion of IGF-II (MCF-7 BCC): Stimulation
effect on apoptosis evoked by C6-ceramide (Tsup-1 cells [2]): not
effect on apoptosis induced by anti-Fas antibody and a combination of anti-CD3 and anti-CD28 antibodies (Tsup-1 cells [2]): prevent apoptosis
percentage of control apoptosis (Tsup-1 cells [3]; [10]): 61%
percentage of control apoptosis (Tsup-1 cells [3]; Edg-2 & -4 antisense pretreatment, lipid 10^−9 M): 69%
percentage of control apoptosis (Tsup-1 cells [3]; [11]): 31%
percentage of control apoptosis (Tsup-1 cells [3]; [12]): 51%
maximal increase of mean luciferase luminometric activity (MCF-7 BCCs): up to 37 fold
number of LPA-binding sites (receptor density) (Edg4 [5]): 33,000±3200
change in SRE-luciferase response [6]: minimal changes
magnitude of evoked SRE-driven reporter activation of Edg4 relative to that of Edg2 (Edg4 [7]): approximately four times higher
EC50 (Edg2; Edg2-transfected Jurkat cells): ~10 nM

Molecule: COc1cccc(-c2cc(=O)c3ccccc3o2)c1N [MEK, 2′-amino-3′-methoxyflavone]
percentage inhibition of the control SRE reporter response to LPA (MDA-MB-453 BCCs; 10^−7 M LPA, serum-free DMEM): 69%
percentage inhibition of the control SRE reporter response to S1P (MDA-MB-453 BCCs; 10^−7 M S1P, serum-free DMEM): 61%
inhibition of LPA- and S1P-stimulated secretion of IGF-II (MCF-7 BCC): inhibited
percentage inhibition of the control SRE reporter response to LPA (MCF-7 BCCs; 10^−7 M LPA, serum-free DMEM): 41%
percentage inhibition of the control SRE reporter response to S1P (MCF-7 BCCs; 10^−7 M S1P, serum-free DMEM): 37%

Further lines, with some results ahead:

increase in luciferase expression (Edg4 [1]; [8]): failed to generate significant increases
increase in luciferase expression (Edg2; [9]): failed to generate significant increases
Molecule: lysophosphatidyl-ethanolamine

increase in luciferase expression (Edg4 [1]; [8]): failed to generate significant increases
increase in luciferase expression (Edg2; [9]): failed to generate significant increases
Molecule: lysophosphatidyl-serine

EC50 (Edg4 [1]; Edg4-transfected Jurkat cells, 10-h incubation, read-out: EC50 of activation of SRE-driven reporter gene): ≥ 500 nM
EC50 (Edg2; Edg2-transfected Jurkat cells): ≥ 500 nM
Molecule: phosphatidic acid [PA]
magnitude of evoked SRE-driven reporter activation of Edg4 relative to that of Edg2 (Edg4 [7]): approximately four times higher

increase in luciferase expression (Edg4 [1]; [8]): failed to generate significant increases
increase in luciferase expression (Edg2; [9]): failed to generate significant increases
Molecule: lysophosphatidyl-choline
